Assay results reported in patent US8273761B2, “Tricyclic compound and medical use thereof” (Takeda Pharmaceutical Company Limited, priority 2006, dated 2012).

Key:
[1] = molecular target: T1, human melatonin 1 receptors (human MT1 receptors) (Homo sapiens, UniProt P48039); assay: Melatonin receptor binding inhibitory test (MT1); conditions: 2-[125I] Iodomelatonin 400 pM solution, membrane fraction of CHO-hMelR7 cells, 25° C. for 2.5 hr
T1 construct: expressed in transfected cells
Description: Biochim Biophys Acta. Vol. 1219(2), pp. 251-259, 1994) to give plasmid pAKKO-hMelR7 for animal cell expression. CHO/dhfr-cells (ATCC, #CRL-9096) were plated at a concentration of 0.3×10^6 cells/dish in a 6 cm culture dish (Becton Dickinson), and cultured under the conditions of 37° C., 5% CO2 for 48 hr. The cells were transfected with pAKKO-hMelR7 plasmid DNA (5 μg) using […] Transfection Kit (Amersham, #27-9268-01). The transfected cells were cultured in Dulbecco's modified Eagle medium (DMEM) (Sigma, #D6046) containing 10% dialyzed FBS ([…]), 1× Non-Essential Amino Acid (Invitrogen, #11140-050) and 50 μg/mL Gentamycin (Invitrogen, #15750-060), and the cell line that stably expressed the plasmid gene was selected. By a receptor binding assay using 2-[^125I] […] (3) Preparation of Cellular Membrane Fraction of CHO Cell (CHO-hMelR7 and CHO-hMT2) Stably Expressing Human MT1 and MT2 Receptors CHO-hMelR7 and CHO-hMT2 cells were plated using Cellfactory (Nunc, #170009) under the conditions of 1×10^8 cells/2000 mL/flask. The cells were grown to confluent, and recovered by the following method. As the medium for CHO-hMelR7 and CHO-hMT2, MEM α containing 10% FBS and penicillin/streptomycin was used. 300 ng/mL of geneticin was added to the medium for CHO-hMT2. The medium was discarded, cells were washed twice with 200 mL of EDTA/PBS(-), 200 mL of EDTA/PBS(-) was further added, and the cells were stood still at room temperature for 20 min until they were released. The cells were recovered in four 50 mL tubes (Becton Dickinson, #352070), and centrifuged at 1,500 rpm for 10 min at 4° C. using a low speed cooling centrifuge (Hitachi, CF7D2). The supernatant was discarded, the pellets in the four tubes were suspended in 10 mL of PBS(-), and combined in one tube (Becton Dickinson, #352070). The mixture was further centrifuged at 1,500 rpm for 10 min at 4° C., and the obtained pellets were suspended in 20 mL of ice-cooled homogenizing buffer [10 mM NaHCO3, 5 mM EDTA, Protease inhibitor Complete (Roche), pH 7.4]. The cell suspension was homogenized 3 times using a polytron homogenizer at 20,000 rpm for 30 sec. The obtained homogenate was centrifuged (2,000 rpm, 10 min, 4° C.) using a low speed cooling centrifuge. The supernatant was recovered in an ultracentrifugation tube and ultracentrifuged (40,000 rpm, 60 min, 4° C.) using an ultracentrifuge (Beckman, […]). To the obtained pellets was added a suspending buffer [50 mM Tris-HCl, 1 mM EDTA, Protease inhibitor Complete (Roche), pH 7.4], and the pellets were suspended by pipetting. The protein concentration of this suspension was measured, diluted to 2 mg/mL to give cellular membrane fractions of CHO-hMelR7 and CHO-hMT2 cells. […] Protein was quantified using BCA protein assay kit (Pierce) with BSA as the standard. (4) Preparation of Membrane Fraction Suspension Immediately before use, the membrane fractions of CHO-hMelR7 and CHO-hMT2 cells of the above-mentioned (3) were diluted 20-fold with assay buffer (50 mM Tris-HCl, pH 7.7). (5) Preparation of 2-[^125I] […] (6) Binding Reaction The assay buffer (80 μL) of the above-mentioned (4) was added to each well of a 96-well plate (type 3363, Corning). […] (7) Measurement Using a cell harvester (PerkinElmer), the binding reaction mixture in each well of the 96-well plate was transferred to a treated (immersed in 50 mM Tris, pH 7.7 in advance) filter plate (UniFilter GF/C, PerkinElmer) and filtered. After filtration, the plate was washed 4 times with the assay buffer, and dried in a dryer (42° C.) for 2 hr or more. 25 μL of a liquid scintillator (MicroScint O, PerkinElmer) was added to each well of the filter plate after drying, and the luminescence of scintillator was measured by TopCount (PerkinElmer) for 1 min. Specific binding is a value obtained by subtracting nonspecific binding from the total binding.

[2] = molecular target: T2, human melatonin 2 receptors (human MT2 receptors) (Homo sapiens, UniProt P49286); assay: Melatonin receptor binding inhibitory test (MT2); conditions: 2-[125I] Iodomelatonin 1 nM solution, membrane fraction of CHO-hMT2 cells, 25° C. for 2.5 hr
T2 construct: expressed in transfected cells
T2 sequence (P49286 1-362): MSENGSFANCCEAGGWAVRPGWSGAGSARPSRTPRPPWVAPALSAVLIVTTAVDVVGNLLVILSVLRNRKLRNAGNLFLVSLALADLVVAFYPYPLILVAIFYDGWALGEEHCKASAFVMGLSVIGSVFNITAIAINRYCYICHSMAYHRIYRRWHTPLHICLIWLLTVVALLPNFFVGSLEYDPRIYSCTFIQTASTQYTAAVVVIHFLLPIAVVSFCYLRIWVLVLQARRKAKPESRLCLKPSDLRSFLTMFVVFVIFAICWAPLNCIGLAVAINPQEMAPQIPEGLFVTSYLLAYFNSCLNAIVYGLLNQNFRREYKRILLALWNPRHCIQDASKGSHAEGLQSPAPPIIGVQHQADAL
Description: Melatonin Receptor Binding Inhibitory Test (2) Preparation of CHO-hMT2 Cells Expressing Human Melatonin 2 Receptors A cDNA fragment (SEQ ID NO: 2) encoding full-length of human melatonin 2 receptors (human MT2 receptors) was incorporated into expression vector pCMV-Script (Stratagene, #212220) to give the plasmid that was pCMV-human MT2 receptors expression vector for animal cell expression. CHO-K1 cells (ATCC, #CCL-61) were plated at the concentration of 1.5×10^5 cells/cm^2 in a 6 well plate (ASAHI TECHNO GLASS), and cultured under the conditions of 37° C., 5% CO2 for 24 hr. For gene transfection, solution obtained by blending pCMV-human MT2 receptors expression vector (1.9 μg), Lipofectamine Transfection Reagent (Invitrogen, #18324-012) (11.3 μL) and Minimum Essential Medium Eagle (MEM) medium (Sigma, M8042) (93.8 μL), and reacting at room temperature for 20 min was added to the cells per one well. The transfected cells were cultured in MEM medium containing 10% FBS (Life Technology) and 300 μg/mL Geneticin (GIBCO, #10131), and the cell line that stably expressed the plasmid gene was selected. By a receptor binding assay using 2-[^125I] […] (3) Preparation of Cellular Membrane Fraction of CHO Cell (CHO-hMelR7 and CHO-hMT2) Stably Expressing Human MT1 and MT2 Receptors CHO-hMelR7 and CHO-hMT2 cells were plated using Cellfactory (Nunc, #170009) under the conditions of 1×10^8 cells/2000 mL/flask. The cells were grown to confluent, and recovered by the following method. As the medium for CHO-hMelR7 and CHO-hMT2, MEM α containing 10% FBS and penicillin/streptomycin was used. 300 ng/mL of geneticin was added to the medium for CHO-hMT2. The medium was discarded, cells were washed twice with 200 mL of EDTA/PBS(-), 200 mL of EDTA/PBS(-) was further added, and the cells were stood still at room temperature for 20 min until they were released. The cells were recovered in four 50 mL tubes (Becton Dickinson, #352070), and centrifuged at 1,500 rpm for 10 min at 4° C. using a low speed cooling centrifuge (Hitachi, CF7D2). The supernatant was discarded, the pellets in the four tubes were suspended in 10 mL of PBS(-), and combined in one tube (Becton Dickinson, #352070). The mixture was further centrifuged at 1,500 rpm for 10 min at 4° C., and the obtained pellets were suspended in 20 mL of ice-cooled homogenizing buffer [10 mM NaHCO3, 5 mM EDTA, Protease inhibitor Complete (Roche), pH 7.4]. The cell suspension was homogenized 3 times using a polytron homogenizer at 20,000 rpm for 30 sec. The obtained homogenate was centrifuged (2,000 rpm, 10 min, 4° C.) using a low speed cooling centrifuge. The supernatant was recovered in an ultracentrifugation tube and ultracentrifuged (40,000 rpm, 60 min, 4° C.) using an ultracentrifuge (Beckman, […]). To the obtained pellets was added a suspending buffer [50 mM Tris-HCl, 1 mM EDTA, Protease inhibitor Complete (Roche), pH 7.4], and the pellets were suspended by pipetting. The protein concentration of this suspension was measured, diluted to 2 mg/mL to give cellular membrane fractions of CHO-hMelR7 and CHO-hMT2 cells. […] Protein was quantified using BCA protein assay kit (Pierce) with BSA as the standard. (4) Preparation of Membrane Fraction Suspension Immediately before use, the membrane fractions of CHO-hMelR7 and CHO-hMT2 cells of the above-mentioned (3) were diluted 20-fold with assay buffer (50 mM Tris-HCl, pH 7.7). (5) Preparation of 2-[^125I] […] (6) Binding Reaction The assay buffer (80 μL) of the above-mentioned (4) was added to each well of a 96-well plate (type 3363, Corning). […] (7) Measurement Using a cell harvester (PerkinElmer), the binding reaction mixture in each well of the 96-well plate was transferred to a treated (immersed in 50 mM Tris, pH 7.7 in advance) filter plate (UniFilter GF/C, PerkinElmer) and filtered.

T1 sequence (P48039 whole entry): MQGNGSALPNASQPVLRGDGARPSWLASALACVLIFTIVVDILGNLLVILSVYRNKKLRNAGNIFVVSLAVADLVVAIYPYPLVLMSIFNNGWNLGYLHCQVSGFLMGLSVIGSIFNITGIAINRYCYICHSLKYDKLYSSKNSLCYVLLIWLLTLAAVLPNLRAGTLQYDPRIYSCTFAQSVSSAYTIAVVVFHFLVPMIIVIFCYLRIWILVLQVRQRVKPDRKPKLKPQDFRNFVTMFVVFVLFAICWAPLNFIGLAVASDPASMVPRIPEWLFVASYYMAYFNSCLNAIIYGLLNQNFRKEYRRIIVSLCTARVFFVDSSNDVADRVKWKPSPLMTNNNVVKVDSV

`CCC(=O)NC/C=C1\CCc2ncc3c(c21)CCO3` [Example 32, N-[(2E)-2-(1,2,6,7-tetrahydro-8H-cyclopenta[b]furo[3,2-d]pyridin-8-ylidene)ethyl]propanamide] gave a melting point of 163 to 164 °C.
Work on `O=C(NCCC1CCc2cnc3c(c21)CCO3)C1CC1` (centres unmarked) [Example 26, N-[2-(1,6,7,8-tetrahydro-2H-cyclopenta[d]furo[2,3-b]pyridin-8-yl)ethyl]cyclopropanecarboxamide] yielded an IC50 [1] of at most 0.1 µM.
In the case of `CCC(=O)NCCc1cnn2ccc3occc3c12` [Example 1, N-(2-furo[3,2-c]pyrazolo[1,5-a]pyridin-1-ylethyl)propanamide], the melting point is reported as 104 to 106 °C and the IC50 [2] is reported as at most 0.1 µM.
Work on `CC(=O)NCCC1CCc2cnc3c(c21)CCO3` (centres unmarked) [Example 19, N-[2-(1,6,7,8-tetrahydro-2H-cyclopenta[d]furo[2,3-b]pyridin-8-yl)ethyl]acetamide] yielded an IC50 [1] of at most 0.1 µM.
